Test results published in ChEMBL document CHEMBL1955745, “Synthesis and in vitro antitumor activity of asperphenamate derivatives as autophagy inducer” (Bioorg Med Chem Lett, 2012).
≈ marks a conversion by molar mass, not a printed value.

How the values were obtained:
Bel-7402 = assay: Antiproliferative activity against human Bel7402 cells after 3 days by MTT assay; type: functional, cell-based; conditions: Bel-7402, 72 h
[1] = Thermodynamic solubility of the compound in phosphate buffer at pH 7.4 at 1 mg after 10 mins by HPLC -UV analysis; type: physicochemical; conditions: read-out: Therm_solubility
HeLa = assay: Antiproliferative activity against human HeLa cells after 3 days by MTT assay; type: functional, cell-based; conditions: 72 h
MCF7 = assay: Antiproliferative activity against human MCF7 cells after 3 days by MTT assay; type: functional, cell-based; conditions: MCF7, 72 h

Row | SMILES | IC50 (Bel-7402) [µM] | solubility thermodynamic at 10 min [1] [mg/mL] | IC50 (HeLa) [µM] | IC50 (MCF7) [µM]
1 | O=C(N[C@H](COC(=O)[C@H](Cc1ccccc1)NC(=O)c1ccccc1OCc1ccccc1)Cc1ccccc1)c1ccccc1 | > 100 | 0.0263 (≈ 43 µM) | > 100 | > 100
2 | O=C(N[C@@H](COC(=O)[C@@H](Cc1ccccc1)NC(=O)c1ccccc1)Cc1ccccc1)c1ccccc1 | > 100 | – | > 100 | > 100
3 | O=C(Cc1ccc(O)cc1)N[C@@H](Cc1ccccc1)C(=O)OC[C@@H](Cc1ccccc1)NC(=O)c1ccccc1 | > 100 | – | > 100 | > 100
4 | O=C(N[C@@H](COC(=O)[C@H](Cc1ccccc1)NC(=O)c1ccccc1)Cc1ccccc1)c1ccccc1 | > 100 | – | > 100 | > 100
5 | O=C(N[C@@H](COC(=O)[C@H](Cc1ccccc1)NC(=O)c1cccc(O)c1)Cc1ccccc1)c1ccccc1 | > 100 | – | > 100 | > 100
6 | CC(=O)N[C@@H](Cc1ccccc1)C(=O)OC[C@@H](Cc1ccccc1)NC(=O)c1ccccc1 | > 100 | – | > 100 | > 100
7 | C[C@H](COC(=O)[C@H](Cc1ccccc1)NC(=O)c1ccccc1)NC(=O)c1ccccc1 | > 100 | – | > 100 | > 100
8 | C[C@H](NC(=O)c1ccccc1)C(=O)OC[C@@H](Cc1ccccc1)NC(=O)c1ccccc1 | > 100 | – | > 100 | > 100
9 | C[C@@H](COC(=O)[C@H](Cc1ccccc1)NC(=O)c1ccccc1)NC(=O)c1ccccc1 | > 100 | 0.513 (≈ 1190 µM) | > 100 | > 100
10 | O=C(N[C@H](COC(=O)[C@H](Cc1ccccc1)NC(=O)c1ccccc1)Cc1ccccc1)c1ccccc1 [ASPERPHENAMATE] | > 100 | 0.00885 (≈ 17.5 µM) | > 100 | 94.8
11 | CC(=O)N[C@H](Cc1ccccc1)C(=O)OC[C@@H](Cc1ccccc1)NC(=O)c1ccccc1 | > 100 | – | > 100 | > 100
12 | CC(=O)N[C@@H](COC(=O)[C@H](Cc1ccccc1)NC(=O)c1ccccc1)Cc1ccccc1 | > 100 | – | > 100 | > 100
13 | O=C(Cc1ccccc1OCc1ccccc1)N[C@@H](Cc1ccccc1)C(=O)OC[C@H](Cc1ccccc1)NC(=O)c1ccccc1 | > 100 | 0.223 (≈ 356 µM) | > 100 | > 100
14 | C[C@H](COC(=O)[C@@H](Cc1ccccc1)NC(=O)c1ccccc1)NC(=O)c1ccccc1 | > 100 | – | > 100 | > 100
15 | O=C(N[C@H](COC(=O)[C@H](Cc1ccccc1)NC(=O)c1ccc(O)cc1)Cc1ccccc1)c1ccccc1 | > 100 | 0.37 (≈ 709 µM) | > 100 | > 100
16 | C[C@@H](NC(=O)c1ccccc1)C(=O)OC[C@H](Cc1ccccc1)NC(=O)c1ccccc1 | > 100 | 0.192 (≈ 445 µM) | > 100 | > 100
17 | O=C(N[C@H](COC(=O)[C@@H](Cc1ccccc1)NC(=O)c1ccccc1)Cc1ccccc1)c1ccccc1 | > 100 | 0.00321 (≈ 6.34 µM) | > 100 | > 100
18 | C[C@H](NC(=O)c1ccccc1)C(=O)OC[C@H](Cc1ccccc1)NC(=O)c1ccccc1 | > 100 | 0.329 (≈ 764 µM) | > 100 | > 100
19 | O=C(N[C@H](COC(=O)[C@H](Cc1ccccc1)NC(=O)c1cccc(O)c1)Cc1ccccc1)c1ccccc1 | > 100 | 1.59 (≈ 3040 µM) | > 100 | > 100
20 | O=C(Cc1ccccc1O)N[C@@H](Cc1ccccc1)C(=O)OC[C@H](Cc1ccccc1)NC(=O)c1ccccc1 | > 100 | 0.349 (≈ 650 µM) | > 100 | > 100
21 | C[C@@H](NC(=O)c1ccccc1)C(=O)OC[C@@H](Cc1ccccc1)NC(=O)c1ccccc1 | > 100 | – | > 100 | > 100
22 | O=C(Cc1ccc(O)cc1)N[C@H](Cc1ccccc1)C(=O)OC[C@H](Cc1ccccc1)NC(=O)c1ccccc1 | > 100 | 0.295 (≈ 550 µM) | > 100 | > 100
23 | CC(=O)N[C@@H](Cc1ccccc1)C(=O)OC[C@H](Cc1ccccc1)NC(=O)c1ccccc1 | > 100 | 0.56 (≈ 1260 µM) | > 100 | 88.4
24 | CC(=O)N[C@@H](COC(=O)[C@@H](Cc1ccccc1)NC(=O)c1ccccc1)Cc1ccccc1 | > 100 | – | > 100 | > 100
25 | C[C@@H](COC(=O)[C@@H](Cc1ccccc1)NC(=O)c1ccccc1)NC(=O)c1ccccc1 | > 100 | 0.236 (≈ 549 µM) | > 100 | > 100

Stronger by IC50 (Bel-7402), values ahead:

Row | IC50 (Bel-7402) [µM] | solubility thermodynamic at 10 min [1] [mg/mL] | IC50 (HeLa) [µM] | IC50 (MCF7) [µM] | SMILES
26 | 40.2 | 2 (≈ 3820 µM) | 26.1 | 42.9 | O=C(N[C@H](COC(=O)[C@@H](Cc1ccccc1)NC(=O)c1cccc(O)c1)Cc1ccccc1)c1ccccc1
27 | 68.7 | 0.302 (≈ 578 µM) | 59 | 53.2 | O=C(N[C@H](COC(=O)[C@@H](Cc1ccccc1)NC(=O)c1ccc(O)cc1)Cc1ccccc1)c1ccccc1
28 | 54 | 0.524 (≈ 977 µM) | 53.3 | 62.9 | O=C(Cc1ccccc1O)N[C@H](Cc1ccccc1)C(=O)OC[C@H](Cc1ccccc1)NC(=O)c1ccccc1
29 | 38.1 | – | 42.9 | 36.3 | O=C(N[C@@H](COC(=O)[C@@H](Cc1ccccc1)NC(=O)c1ccccc1O)Cc1ccccc1)c1ccccc1
30 | 33.6 | – | 27.9 | 39.2 | O=C(Cc1ccccc1O)N[C@@H](Cc1ccccc1)C(=O)OC[C@@H](Cc1ccccc1)NC(=O)c1ccccc1
31 | 64.8 | 0.0182 (≈ 34.7 µM) | 30.4 | 49 | O=C(N[C@H](COC(=O)[C@H](Cc1ccccc1)NC(=O)c1ccccc1O)Cc1ccccc1)c1ccccc1
32 | 49.9 | – | 63.4 | 55.3 | O=C(N[C@@H](COC(=O)[C@@H](Cc1ccccc1)NC(=O)c1cccc(O)c1)Cc1ccccc1)c1ccccc1
33 | 41.1 | – | 54.4 | 70.3 | O=C(N[C@@H](COC(=O)[C@@H](Cc1ccccc1)NC(=O)c1ccccc1OCc1ccccc1)Cc1ccccc1)c1ccccc1
34 | 70.9 | – | 42.8 | 52.5 | O=C(Cc1ccc(O)cc1)N[C@H](Cc1ccccc1)C(=O)OC[C@@H](Cc1ccccc1)NC(=O)c1ccccc1
35 | 41.2 | – | 42.5 | 42.4 | O=C(N[C@@H](COC(=O)[C@H](Cc1ccccc1)NC(=O)c1ccccc1O)Cc1ccccc1)c1ccccc1
36 | 55.6 | – | 62.9 | 59.7 | O=C(N[C@@H](COC(=O)[C@H](Cc1ccccc1)NC(=O)c1ccc(O)cc1)Cc1ccccc1)c1ccccc1
37 | 37.8 | 0.135 (≈ 216 µM) | 25.5 | 28.8 | O=C(Cc1ccccc1OCc1ccccc1)N[C@H](Cc1ccccc1)C(=O)OC[C@H](Cc1ccccc1)NC(=O)c1ccccc1
38 | 69.8 | 0.207 (≈ 466 µM) | 56.4 | 79.9 | CC(=O)N[C@H](Cc1ccccc1)C(=O)OC[C@H](Cc1ccccc1)NC(=O)c1ccccc1
39 | 29.7 | – | 19.5 | 18.4 | O=C(Cc1ccccc1O)N[C@H](Cc1ccccc1)C(=O)OC[C@@H](Cc1ccccc1)NC(=O)c1ccccc1
40 | 14.5 | 0.0774 (≈ 148 µM) | 15.2 | 11.9 | O=C(N[C@H](COC(=O)[C@@H](Cc1ccccc1)NC(=O)c1ccccc1O)Cc1ccccc1)c1ccccc1
41 | 51.4 | – | 52.1 | 32.8 | O=C(N[C@@H](COC(=O)[C@@H](Cc1ccccc1)NC(=O)c1ccc(O)cc1)Cc1ccccc1)c1ccccc1
42 | 71.7 | – | 72.5 | 85.8 | O=C(N[C@@H](COC(=O)[C@H](Cc1ccccc1)NC(=O)c1ccccc1OCc1ccccc1)Cc1ccccc1)c1ccccc1
43 | 79.1 | 0.485 (≈ 1090 µM) | 71.5 | 48.6 | CC(=O)N[C@H](COC(=O)[C@H](Cc1ccccc1)NC(=O)c1ccccc1)Cc1ccccc1
44 | 70.6 | – | 58.8 | 28.2 | O=C(Cc1ccccc1OCc1ccccc1)N[C@@H](Cc1ccccc1)C(=O)OC[C@@H](Cc1ccccc1)NC(=O)c1ccccc1
45 | 89 | 0.0797 (≈ 179 µM) | > 100 | 79.5 | CC(=O)N[C@H](COC(=O)[C@@H](Cc1ccccc1)NC(=O)c1ccccc1)Cc1ccccc1
46 | 94.4 | 0.109 (≈ 204 µM) | 62.7 | 79.6 | O=C(Cc1ccc(O)cc1)N[C@@H](Cc1ccccc1)C(=O)OC[C@H](Cc1ccccc1)NC(=O)c1ccccc1
47 | 31.8 | 0.0426 (≈ 69.5 µM) | 24.6 | 42.2 | O=C(N[C@H](COC(=O)[C@@H](Cc1ccccc1)NC(=O)c1ccccc1OCc1ccccc1)Cc1ccccc1)c1ccccc1
